Source: patent publication US20260207623A1, “USE OF ESTETROL IN HEPATICALLY IMPAIRED PATIENTS” (ESTETRA SRL, priority 2022, published 2026)
Like-named read-outs stand apart in the source and are kept apart here.

Assay: Phase 1 pharmacokinetic study of a single oral dose of 20 mg E4 monohydrate in female subjects with normal hepatic function and mild, moderate or severe hepatic impairment (plasma, LC-MS/MS, non-compartmental analysis)
Format: in vivo, human
Settings: for AUC0-24 h, GM / CL/F, GM / CL/F, Mean / CL/F, Median / Cmax, Mean / λz, GM / λz, Mean / λz, Median / Tmax / AUC(0-inf) / Cmax / AUC(0-t) / half-life / Vd/F: plasma; for Tmax / AUC(0-inf) / Cmax / AUC(0-t) / half-life / Vd/F: female, human, 20 mg
Protocol: This was a Phase 1, multi-centre, open-label, PK, and safety study of a single oral dose of 20 mg E4 monohydrate in female subjects with normal hepatic function (Group 1), mild hepatic impairment (Group 2), moderate hepatic impairment (Group 3), and severe hepatic impairment (Group 4), as defined using the Child-Pugh classification at Screening.
The study consisted of an eligibility Screening period (within 28 days prior to study drug administration), an Assessment Period with in-house period and outpatient visits (including a single oral dose of 20 mg E4 on Day 1), and a follow up visit. All subjects were confined to the study site from Day-1 (the day before dosing) until Day 4 and returned to the site every day from Day 5 to Day 9. Alternatively, the subjects could stay for a prolonged in-house period in agreement with the Investigator. The follow-up visit occurred on Day 14 (+2 days).
All subjects arrived at the study site in the morning of Day-1 in a fasted state (no food for at least 8 h, water was allowed) to have the scheduled assessments performed in order to confirm eligibility as outlined in the inclusion and exclusion criteria (Section 2.3.1 and Section 2.3.2, respectively). In the morning of Day 1 following an overnight fast, the subjects received oral dosing of 20 mg E4 monohydrate and remained at the site. Study-related assessments were performed at time points indicated in the Schedule of Assessments in Table 2.
Serial blood sampling for PK assessments started on Day 1 and proceeded until Day 9 according to the Pharmacokinetic Sampling Schedule presented in Table 3.
Each enrolled subject was to receive a single oral dose of 20 mg of E4 (estetrol) as monohydrate as a film-coated tablet.
Study drug was administered to subjects in the morning after an overnight fast of at least 8 h.
Calculation of non-compartmental PK parameters were done using WinNonlin™ Professional, Version 6.3 or higher.
The primary PK parameters to be analyzed for E4 in plasma: • Cmax=maximum observed plasma concentration • AUCinf=area under the concentration-time curve (AUC) from time zero extrapolated to infinity
The analysis of E4 and the metabolites E4-3-glucuronide and E4-16-glucuronide in plasma samples were performed at the Bioanalytical Laboratory of the CRO using a validated liquid chromatography-mass spectrometry/mass spectrometry method.
Individual and mean plasma concentrations at each sampling time point for E4 are presented by listings and descriptive summary statistics including means, geometric means (GMs), medians, ranges, standard deviations (SD) and coefficients of variation (CV). Individual, mean and/or median concentrations per hepatic function group were plotted versus time on semilogarithmic scales.
PK parameters were calculated by non-compartmental analysis. PK parameters were analysed using descriptive statistics and are presented by hepatic function group.
Analysis of variance (ANOVA) were used to compare primary PK parameters of E4 (Cmax and AUCinf) between subjects with hepatic impairment and subjects with normal hepatic function in an exploratory approach, using the log-transformed value of each PK parameter as dependent variable, and the hepatic impairment group (normal, mild, moderate, and severe) as a fixed classification factor. Geometric least squares means were used to calculate the ratios of primary PK parameters for each hepatic impairment group to those in the control group, along with 90% confidence intervals (CIs).
Additionally, the impact of age and BMI on the effect of hepatic impairment were evaluated using an ANOVA model similar as the ANOVA model described above, but with the interaction between each factor and the hepatic impairment group included as an additional factor.
The relationship between log-transformed PK parameters (Cmax and AUCinf) and continuous parameters (albumin, total bilirubin, and prothrombin time) used for the Child-Pugh score was explored by a linear regression approach. […]

[1] = Mild hepatic impairment, single oral dose 20 mg E4 monohydrate
[2] = Moderate hepatic impairment, single oral dose 20 mg E4 monohydrate
[3] = Moderate vs. Normal, one-way ANOVA
[4] = Normal hepatic function, single oral dose 20 mg E4 monohydrate
[5] = Severe hepatic impairment, single oral dose 20 mg E4 monohydrate
[6] = Severe vs. Normal, one-way ANOVA

With `C[C@]12CC[C@@H]3c4ccc(O)cc4CC[C@H]3[C@@H]1[C@@H](O)[C@@H](O)[C@@H]2O` [E4, 1,3,5 (10)-estratrien-3,15alpha, 16alpha, 17beta-tetrol] the “AUC0-24 h, GM” value [1] was 69.76 ng·h/mL, the “CL/F, GM” value [1] was 171.23 L/h and the “CL/F, Mean” value [1] was 177.13 L/h. For the same compound, the “CL/F, Median” value [1] was 188.75 L/h, the “Cmax, Mean” value [1] was 38.363 ng/mL and the “λz, GM” value [1] was 0.0300 h⁻¹. For the same compound, the “λz, Mean” value [1] was 0.0373 h⁻¹, the “λz, Median” value [1] was 0.0428 h⁻¹ and the “AUCinf, Geometric Mean Ratio (Test/Reference) Estimate” value (Mild vs. Normal, one-way ANOVA) was 1.120. For the same compound, the “Cmax, Geometric Mean Ratio (Test/Reference) Estimate” value (Mild vs. Normal, one-way ANOVA) was 1.661, the “AUC0-24 h, GM” value [2] was 88.75 ng·h/mL and the “CL/F, GM” value [2] was 185.80 L/h. The “CL/F, Mean” value [2] was 214.77 L/h, the “CL/F, Median” value [2] was 175.13 L/h and the “Cmax, Mean” value [2] was 52.410 ng/mL. The “λz, GM” value [2] was 0.0500 h⁻¹, the “λz, Mean” value [2] was 0.0520 h⁻¹ and the “λz, Median” value [2] was 0.0493 h⁻¹. The “AUCinf, Geometric Mean Ratio (Test/Reference) Estimate” value [3] was 1.032, the “Cmax, Geometric Mean Ratio (Test/Reference) Estimate” value [3] was 1.896 and the “AUC0-24 h, GM” value [4] was 60.41 ng·h/mL. The “CL/F, GM” value [4] was 191.77 L/h, the “CL/F, Mean” value [4] was 200.09 L/h and the “CL/F, Median” value [4] was 177.60 L/h. The “Cmax, Mean” value [4] was 23.878 ng/mL, the “λz, GM” value [4] was 0.0300 h⁻¹ and the “λz, Mean” value [4] was 0.0329 h⁻¹. The “λz, Median” value [4] was 0.0307 h⁻¹, the “AUC0-24 h, GM” value [5] was 179.05 ng·h/mL and the “CL/F, GM” value [5] was 101.25 L/h. For the same compound, the “CL/F, Mean” value [5] was 104.83 L/h, the “CL/F, Median” value [5] was 111.40 L/h and the “Cmax, Mean” value [5] was 117.025 ng/mL. For the same compound, the “λz, GM” value [5] was 0.0800 h⁻¹, the “λz, Mean” value [5] was 0.0905 h⁻¹ and the “λz, Median” value [5] was 0.1108 h⁻¹. The “AUCinf, Geometric Mean Ratio (Test/Reference) Estimate” value [6] was 1.894, the “Cmax, Geometric Mean Ratio (Test/Reference) Estimate” value [6] was 5.359 and the “plasma levels at 24 h after administration” value (comparison among hepatic function groups) was “in the same range among the different hepatic function groups”. It also gave a Tmax (oral, across all hepatic function groups, read-out: Tmax, range) of 0.23 to 1.92 h, a Tmax (oral, all hepatic function groups, read-out: Median Tmax, range over the hepatic function groups) of 0.25 to 0.5 h and an AUC(0-inf) (po, Mild (Test), one-way ANOVA, single oral dose 20 mg, read-out: AUCinf, Geometric LS Mean) of 117 ng·h/mL. The Cmax (po, Mild (Test), one-way ANOVA, single oral dose 20 mg, read-out: Cmax, Geometric LS Mean) was 34.5 ng/mL, the AUC(0-t) (po, Mild hepatic impairment, single oral dose 20 mg E4 monohydrate, read-out: AUC0-24 h, GM) was 69.8 ng·h/mL and the AUC(0-t) (po, Mild hepatic impairment, single oral dose 20 mg E4 monohydrate, read-out: AUC0-24 h, Mean) was 72.9 ng·h/mL. The AUC(0-t) (po, Mild hepatic impairment, single oral dose 20 mg E4 monohydrate, read-out: AUC0-24 h, Median) was 66.3 ng·h/mL, the AUC(0-inf) (po, Mild hepatic impairment, single oral dose 20 mg E4 monohydrate, read-out: AUCinf, GM) was 117 ng·h/mL and the AUC(0-inf) (po, Mild hepatic impairment, single oral dose 20 mg E4 monohydrate, read-out: AUCinf, Mean) was 122 ng·h/mL. For the same compound, the AUC(0-inf) (po, Mild hepatic impairment, single oral dose 20 mg E4 monohydrate, read-out: AUCinf, Median) was 106 ng·h/mL, the AUC(0-t) (po, Mild hepatic impairment, single oral dose 20 mg E4 monohydrate, read-out: AUClast, GM) was 116 ng·h/mL and the AUC(0-t) (po, Mild hepatic impairment, single oral dose 20 mg E4 monohydrate, read-out: AUClast, Mean) was 121 ng·h/mL. It also gave an AUC(0-t) (po, Mild hepatic impairment, single oral dose 20 mg E4 monohydrate, read-out: AUClast, Median) of 105 ng·h/mL, a Cmax (po, Mild hepatic impairment, single oral dose 20 mg E4 monohydrate, read-out: Cmax, GM) of 34.5 ng/mL and a Cmax (po, Mild hepatic impairment, single oral dose 20 mg E4 monohydrate, read-out: Cmax, Mean) of roughly 38 ng/mL. It also gave a Cmax (po, Mild hepatic impairment, single oral dose 20 mg E4 monohydrate, read-out: Cmax, Median) of 34.9 ng/mL, a half-life (po, Mild hepatic impairment, single oral dose 20 mg E4 monohydrate, read-out: T1/2, GM (converted)) of 20.1 h and a half-life (po, Mild hepatic impairment, single oral dose 20 mg E4 monohydrate, read-out: T1/2, Mean (converted)) of 22.1 h. For the same compound, the half-life (po, Mild hepatic impairment, single oral dose 20 mg E4 monohydrate, read-out: T1/2, Median (converted)) was 16.2 h, the Tmax (po, Mild hepatic impairment, single oral dose 20 mg E4 monohydrate, read-out: Tmax, Median) was 0.375 h and the Vd/F (po, Mild hepatic impairment, single oral dose 20 mg E4 monohydrate, read-out: Vz/F, GM) was 4960 L. It also gave a Vd/F (po, Mild hepatic impairment, single oral dose 20 mg E4 monohydrate, read-out: Vz/F, Mean) of 5830 L, a Vd/F (po, Mild hepatic impairment, single oral dose 20 mg E4 monohydrate, read-out: Vz/F, Median) of 4800 L and an AUC(0-inf) (po, Moderate (Test), one-way ANOVA, single oral dose 20 mg, read-out: AUCinf, Geometric LS Mean) of 108 ng·h/mL. It also gave a Cmax (po, Moderate (Test), one-way ANOVA, single oral dose 20 mg, read-out: Cmax, Geometric LS Mean) of 39.4 ng/mL, an AUC(0-t) (po, Moderate hepatic impairment, single oral dose 20 mg E4 monohydrate, read-out: AUC0-24 h, GM) of 88.8 ng·h/mL and an AUC(0-t) (po, Moderate hepatic impairment, single oral dose 20 mg E4 monohydrate, read-out: AUC0-24 h, Mean) of 103 ng·h/mL. The AUC(0-t) (po, Moderate hepatic impairment, single oral dose 20 mg E4 monohydrate, read-out: AUC0-24 h, Median) was 92.6 ng·h/mL, the AUC(0-inf) (po, Moderate hepatic impairment, single oral dose 20 mg E4 monohydrate, read-out: AUCinf, GM) was 108 ng·h/mL and the AUC(0-inf) (po, Moderate hepatic impairment, single oral dose 20 mg E4 monohydrate, read-out: AUCinf, Mean) was 123 ng·h/mL. For the same compound, the AUC(0-inf) (po, Moderate hepatic impairment, single oral dose 20 mg E4 monohydrate, read-out: AUCinf, Median) was 115 ng·h/mL and the AUC(0-t) (po, Moderate hepatic impairment, single oral dose 20 mg E4 monohydrate, read-out: AUClast, GM) was 107 ng·h/mL.
